Experimental data from patent US20220395553A1, “CXCR4 ANTAGONIST PEPTIDES” (COHBAR, INC., priority 2019, published 2022).
pIC50: −log10 of the molar value. Square brackets hold non-standard residues; d marks the D form. Peptide text beside a SMILES is read from it.

How the values were obtained:
[1] = tested on: Jurkat cells; test: CXCL12 mediated cell migration, Jurkat cells; type: cell-based, human; conditions: 1.1 μM test article, 100 ng/ml CXCL12, 1 hour
Method: The assay was performed following a protocol similar to that described by Peng, et al., Mol Cancer Ther., 14480-90 (2015), incorporated herein by reference. Peptides were initially prepared as 1 mM stock in H2O and tested at a final concentration of 1.1 μM. […] Jurkat cells were resuspended in serum free media (RPMI+GlutaMax; Gibco/Thermo Fisher Scientific; Gaithersburg, Md.) containing 0.5% bovine serum albumin at density of 5×10^6 cells/ml. […] Cells (250,000 cells in 50 μl) supplemented with the appropriate treatments were seeded on to the upper chamber of a 96-well 5 μm HTS Transwell filter insert (Corning/Costar; Tewksbury, Mass.). […] Filter inserts were immediately placed on top of 96-well receiver trays and placed at 37° C. in a humidified atmosphere of 5% CO2/95% air for 1 hour. Following the 1 hour incubation period the filter inserts were carefully removed and the migration of cells across the filter into the bottom chamber (receiver wells) was determined by measuring ATP levels using Cell TiterGlo 2.0, according to manufacturer's instructions (Promega; Madison, Wis.); luminescence was measured using a Cytation 3 plate reader (BioTek; Winooski, Vt.).

[2] = biological target: T1, human CXCR4 (Homo sapiens, UniProt P61073); test: IC50 for inhibition of CXCR4 activation, β-Arrestin recruitment (Example 22); type: cell-based; parameters: host or cells: C2C12 (mouse myoblast) CXCR4 β-Arrestin PathHunter cell line
Method: The assay was run with the DiscoverX protocol. β-Arrestin recruitment assays were performed by Eurofins-DiscoverX (Fremont, Calif.) using C2C12 CXCR4 β-Arrestin cell line (co-expressing ProLink tagged human CXCR4 and Enzyme Acceptor tagged β-Arrestin) and PathHunter detection kit. Peptides were initially prepared as 1 mM stock in H2O and tested in ten (10)-step concentration response curves using 3-fold dilution steps with 1 μM as highest concentration; a concentration range of 1 μM-0.05 nM was tested. C2C12 CXCR4 β-Arrestin cells were seed onto 384-well plates in standard medium. […] At the end of the 90 min incubation period, β-Arrestin recruitment in response to various treatments was quantified using a chemiluminescent complementation reporter assay to measure association of tagged human […] (ProLink tag) and tagged β-Arrestin (Enzyme Acceptor tag).

[3] = tested on: CXCR4/CXCL12 induced p-MEK; test: CXCR4/CXCL12 induced p-MEK in Jurkat cells (ELISA); type: cell-based, human; conditions: 5 nM CXCL12, 5 min
Method: The assay was performed following a protocol similar to that described by Peng, et al., Mol Cancer Ther., 14 480-90 (2015), incorporated herein by reference. […] Jurkat cells were resuspended in standard growth media (RPMI+GlutaMax media; Gibco/Thermo Fisher Scientific; Gaithersburg, Md.) containing 10% FBS and 1% penicillin/streptomycin. Assays were performed using fresh or conditioned media (media cultured overnight in presence of Jurkat cells) to resuspend cells at density of 2×10^6 cells/ml and […] of cell suspension was immediately placed in 1.7 ml microfuge tubes. […] Following the 5 min incubation, cells were centrifuged at 1000×g for 4 min at 4° C. The supernatant was removed and the cells were rinsed with 1 ml of HBSS containing calcium and magnesium. The HBSS was removed and the cells were immediately lysed in 150 l of lysis buffer included with Phospho-MEK1 (Ser217/221) Sandwich ELISA kit (Cell Signaling Technology; Danvers, Mass.); lysis buffer was supplemented with 1 m M PMSF (Millipore-Sigma; Saint Louis, Mo.) and Halt protease/phosphatase inhibitor cocktail (Thermo-Fisher; Waltham, Mass.) prior to use. The samples were then placed on ice for 10 min and vortexed periodically. Following the lysis step, the samples were centrifuged at 12,500 rpm for 10 min at 4° C. p-MEK expression in each of the samples was then measure using Phospho-MEK1 (Ser217/221) Sandwich ELISA kit according to manufacturer's instructions. Absorbance was measured using a Cytation 3 plate reader at […] (BioTek; Winooski, Vt.).

[4] = biological target: T1, human CXCR4; test: CXCR4/CXCL12 binding, HTRF format, single concentration (Example 23); parameters: host or cells: HEK293 (Tag-lite CXCR4 cells, frozen aliquots, transient expression); conditions: 15 nM CXCR4R fluorescent probe, 3 hours, HEK293 Tag-lite CXCR4 cells
Outline: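 Tag-lite CXCR4 cells were exposed to peptide at 400 nM final with 15 nM (EC80) fluorescent CXCR4 probe for 3 h at room temperature. HTRF was read, and the 665/620 nm ratio ×10,000 measured probe bound to terbium-labelled receptor.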

T1 sequence (P61073 whole entry): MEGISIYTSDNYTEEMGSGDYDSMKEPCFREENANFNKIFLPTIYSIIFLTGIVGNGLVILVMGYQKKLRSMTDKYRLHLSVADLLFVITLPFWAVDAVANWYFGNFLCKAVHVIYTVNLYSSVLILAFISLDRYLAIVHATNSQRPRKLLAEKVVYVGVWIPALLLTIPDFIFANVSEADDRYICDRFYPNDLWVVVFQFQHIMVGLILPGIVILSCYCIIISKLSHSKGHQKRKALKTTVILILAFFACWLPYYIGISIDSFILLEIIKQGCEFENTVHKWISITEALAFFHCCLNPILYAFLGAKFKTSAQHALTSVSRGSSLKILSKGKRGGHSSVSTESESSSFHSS

Row | Compound | Percent Inhibition of CXCL12 Mediated Migration (1.1 μM Test Article) [1] | pIC50 [2] | Percent Inhibition of CXCR4/CXCL12 Induced p-MEK (100 nM Test Article) [3] | Percent Inhibition of CXCR4/CXCL12 Induced p-MEK (1 μM Test Article) [3] | Percent Inhibition of CXCR4/CXCL12 Binding (400 nM peptide) [4]
1 | CC(C)C[C@H](NC(=O)[C@H](CO)NC(=O)[C@H](CO)NC(=O)[C@H](CCCNC(=N)N)NC(=O)[C@@H](C)NC(=O)[C@H](CO)NC(=O)[C@H](Cc1c[nH]cn1)NC(=O)[C@H](Cc1c[nH]cn1)NC(=O)[C@H](Cc1ccc(O)cc1)NC(=O)[C@H](CCCNC(=N)N)NC(=O)[C@H](CC(=O)O)NC(=O)[C@@H](N)CC(C)C)C(=O)N[C@@H](CCCNC(=N)N)C(=O)N1CCC[C@H]1C(=O)N[C@@H](Cc1ccc(O)cc1)C(=O)N[C@H](C(=O)N[C@@H](CCCCN)C(=O)O)[C@@H](C)O [compound 8] (H-LDRYHHS[dA]RSSLRPYTK-OH; N-terminus and C-terminus assumed) | 94% | 8.52 | 32% | 88% | 86%
2 | CC(C)C[C@H](NC(=O)[C@H](CO)NC(=O)[C@H](CO)NC(=O)[C@H](CCCNC(=N)N)NC(=O)[C@@H](NC(=O)[C@H](CO)NC(=O)[C@H](Cc1c[nH]cn1)NC(=O)[C@H](Cc1c[nH]cn1)NC(=O)[C@H](Cc1ccc(O)cc1)NC(=O)[C@H](CCCNC(=N)N)NC(=O)[C@H](CCC(=O)O)NC(=O)[C@@H](N)CC(C)C)C(C)C)C(=O)N[C@@H](CCCNC(=N)N)C(=O)N1CCC[C@H]1C(=O)N[C@@H](Cc1ccc(O)cc1)C(=O)N[C@H](C(=O)O)[C@@H](C)O [compound 18] (H-LERYHHSVRSSLRPYT-OH; N-terminus and C-terminus assumed) | 66% |  | 45% | 78% | 57%
3 | CC(C)C[C@H](NC(=O)[C@H](CO)NC(=O)[C@@H](NC(=O)[C@H](CCCNC(=N)N)NC(=O)[C@@H](NC(=O)[C@H](CO)NC(=O)[C@H](Cc1c[nH]cn1)NC(=O)[C@H](Cc1c[nH]cn1)NC(=O)[C@H](Cc1ccc(O)cc1)NC(=O)[C@H](CCCNC(=N)N)NC(=O)[C@H](CCCNC(=N)N)NC(=O)[C@@H](N)CC(C)C)C(C)C)[C@@H](C)O)C(=O)N[C@@H](CCCNC(=N)N)C(=O)N1CCC[C@H]1C(=O)N[C@@H](Cc1ccc(O)cc1)C(=O)N[C@H](C(=O)N[C@@H](CCCCN)C(=O)O)[C@@H](C)O [compound 70] (H-LRRYHHSVRTSLRPYTK-OH; N-terminus and C-terminus assumed) | 21% |  | 57% | 93% | 11%
4 | CC(C)C[C@H](NC(=O)[C@@H](NC(=O)[C@H](CO)NC(=O)[C@H](CCCNC(=N)N)NC(=O)[C@@H](NC(=O)[C@H](CO)NC(=O)[C@H](Cc1c[nH]cn1)NC(=O)[C@H](Cc1c[nH]cn1)NC(=O)[C@H](Cc1ccc(O)cc1)NC(=O)[C@H](CCCNC(=N)N)NC(=O)[C@H](CCCNC(=N)N)NC(=O)[C@@H](N)CC(C)C)C(C)C)[C@@H](C)O)C(=O)N[C@@H](CCCNC(=N)N)C(=O)N1CCC[C@H]1C(=O)N[C@@H](Cc1ccc(O)cc1)C(=O)N[C@H](C(=O)N[C@@H](CCCCN)C(=O)O)[C@@H](C)O [compound 71] (H-LRRYHHSVRSTLRPYTK-OH; N-terminus and C-terminus assumed) |  | 8.52 | 56% | 94% | 29%
5 | CC(C)C[C@H](NC(=O)[C@H](CO)NC(=O)[C@H](CO)NC(=O)[C@H](CCCNC(=N)N)NC(=O)[C@@H](NC(=O)[C@H](CO)NC(=O)[C@H](Cc1c[nH]cn1)NC(=O)[C@H](Cc1c[nH]cn1)NC(=O)[C@H](Cc1ccc(O)cc1)NC(=O)[C@H](CCCNC(=N)N)NC(=O)[C@H](CCCNC(=N)N)NC(=O)[C@@H](N)CC(C)C)C(C)C)C(=O)N[C@@H](CCCNC(=N)N)C(=O)N1CCC[C@H]1C(=O)N[C@@H](Cc1ccc(O)cc1)C(=O)N[C@@H](CO)C(=O)N[C@@H](CCCCN)C(=O)O [compound 72] (H-LRRYHHSVRSSLRPYSK-OH; N-terminus and C-terminus assumed) |  | 8.30 | 8% | 86% | 6%
6 | CC(C)C[C@H](NC(=O)[C@H](CO)NC(=O)[C@@H](NC(=O)[C@H](CCCNC(=N)N)NC(=O)[C@@H](C)NC(=O)[C@H](CO)NC(=O)[C@H](Cc1c[nH]cn1)NC(=O)[C@H](Cc1c[nH]cn1)NC(=O)[C@H](Cc1ccc(O)cc1)NC(=O)[C@H](CCCNC(=N)N)NC(=O)[C@H](CCC(=O)O)NC(=O)[C@@H](N)CC(C)C)[C@@H](C)O)C(=O)N[C@@H](CCCNC(=N)N)C(=O)N1CCC[C@H]1C(=O)N[C@@H](Cc1ccc(O)cc1)C(=O)N[C@H](C(=O)N[C@@H](CCCCN)C(=O)O)[C@@H](C)O [compound 76] (H-LERYHHS[dA]RTSLRPYTK-OH; N-terminus and C-terminus assumed) |  | 8.22 | 5% | 44% | 75%
7 | CC(C)C[C@H](NC(=O)[C@@H](NC(=O)[C@H](CO)NC(=O)[C@H](CCCNC(=N)N)NC(=O)[C@@H](C)NC(=O)[C@H](CO)NC(=O)[C@H](Cc1c[nH]cn1)NC(=O)[C@H](Cc1c[nH]cn1)NC(=O)[C@H](Cc1ccc(O)cc1)NC(=O)[C@H](CCCNC(=N)N)NC(=O)[C@H](CCC(=O)O)NC(=O)[C@@H](N)CC(C)C)[C@@H](C)O)C(=O)N[C@@H](CCCNC(=N)N)C(=O)N1CCC[C@H]1C(=O)N[C@@H](Cc1ccc(O)cc1)C(=O)N[C@H](C(=O)N[C@@H](CCCCN)C(=O)O)[C@@H](C)O [compound 77] (H-LERYHHS[dA]RSTLRPYTK-OH; N-terminus and C-terminus assumed) |  | 8.40 | 7% | 68% | 77%
8 | CC(C)C[C@H](NC(=O)[C@H](CO)NC(=O)[C@H](CO)NC(=O)[C@H](CCCNC(=N)N)NC(=O)[C@@H](C)NC(=O)[C@H](CO)NC(=O)[C@H](Cc1c[nH]cn1)NC(=O)[C@H](Cc1c[nH]cn1)NC(=O)[C@H](Cc1ccc(O)cc1)NC(=O)[C@H](CCCNC(=N)N)NC(=O)[C@H](CCC(=O)O)NC(=O)[C@@H](N)CC(C)C)C(=O)N[C@@H](CCCNC(=N)N)C(=O)NCC(=O)N[C@@H](Cc1ccc(O)cc1)C(=O)N[C@H](C(=O)N[C@@H](CCCCN)C(=O)O)[C@@H](C)O [compound 81] (H-LERYHHS[dA]RSSLRGYTK-OH; N-terminus and C-terminus assumed) |  | 8.52 | −16% | 20% | 81%
